Read-outs that look alike come from different tables or passages of the source.
Columns and labels:
[1] = test system: acute myelogenous leukemia cells (MV-4-11 cells); test: Cytotoxicity to acute myelogenous leukemia cells (MV-4-11 cells), CCK-8; conditions: Homo sapiens, MV4-11, 72 h
[2] = target: BRD4 (BD1+BD2) bromodomain (Homo sapiens (Human), UniProt O60885); test: BRD4 binding inhibition (AlphaScreen, GST-BRD4 vs tetraacetylated histone H4 peptide)
In short: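 AlphaScreen read after 30 min dark incubation at room temperature with glutathione acceptor/streptavidin donor beads (10 μg/ml each). The beads were added to compound plus 100 nM biotin-H4 (K5,8,12,16-acetyl) peptide and 100 nM GST-BRD4 BD1+BD2 in pH 7.4 HEPES/Tween/BSA/DTT buffer.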

[3] = read-out: MV-4-11 Cytotoxicity IC50
[4] = GST-BRD4 (BD1+BD2) / biotinylated acetyl-histone H4 (Lys5,8,12,16) peptide, read-out: IC50, BRD4 binding inhibition
[5] = GST-BRD4 (BD1+BD2) vs biotinylated acetyl-histone H4 peptide, AlphaScreen, read-out: BRD4 IC50
[6] = read-out: IC50, cytotoxicity against acute myelogenous leukemia cells

IC50 [2, 4] | IC50 [2, 5] | Compound | IC50 [1, 3] | IC50 [1, 6] | IC50 ([2]; IC50, BRD4 binding inhibition, GST-BRD4 (BD1+BD2) / biotinylated acetyl-histone H4 (Lys5,8,12,16) peptide)
≤ 50 nM | 43 nM | Cc1nnc2c(NCCCCNC(=O)CC(C)(C)C)nc3ccc(OC(F)(F)F)cc3n12 [Example 266, 3,3-dimethyl-N-[4-(1-methyl-8-trifluoromethoxy-[1,2,4]triazolo[4,3-a]quinoxaline-4-ylamino)-butyl]-butyramide] | 540 nM | – | –
≤ 50 nM | 39 nM | Cc1nnc2c(NCCCCNC(=O)c3ccccc3)nc3ccc(OC(F)(F)F)cc3n12 [Example 267, N-[4-(1-methyl-8-trifluoromethoxy-[1,2,4]triazolo[4,3-a]quinoxaline-4-ylamino)-butyl]-benzamide] | 570 nM | – | –
≤ 50 nM | 35 nM | Cc1nnc2c(NCCCCNC(=O)c3ccccc3Cl)nc3ccc(OC(F)(F)F)cc3n12 [Example 268, 2-chloro-N-[4-(1-methyl-8-trifluoromethoxy-[1,2,4]triazolo[4,3-a]quinoxaline-4-ylamino)-butyl]-benzamide] | 500 nM | – | –
≤ 50 nM | 25 nM | Cc1nnc2c(NCCCCNC(=O)CC(C)(C)C)nc3cc(OC(F)(F)F)ccc3n12 [Example 272, 3,3-dimethyl-N-[4-(1-methyl-7-trifluoromethoxy-[1,2,4]triazolo[4,3-a]quinoxaline-4-ylamino)-butyl]-butyramide] | 810 nM | – | –
≤ 50 nM | 49 nM | Cc1nnc2c(NCCCCNC(=O)c3ccccc3)nc3cc(OC(F)(F)F)ccc3n12 [Example 273, N-[4-(1-methyl-7-trifluoromethoxy-[1,2,4]triazolo[4,3-a]quinoxaline-4-ylamino)-butyl]-benzamide] | 510 nM | – | –
≤ 50 nM | 27 nM | Cc1nnc2c(NCCCCNC(=O)c3ccccc3Cl)nc3cc(OC(F)(F)F)ccc3n12 [Example 274, 2-chloro-N-[4-(1-methyl-7-trifluoromethoxy-[1,2,4]triazolo[4,3-a]quinoxaline-4-ylamino)-butyl]-benzamide] | 280 nM | – | –
≤ 50 nM | 38 nM | COc1ccc2c(c1)nc(NCCCCNC(=O)OC(C)(C)C)c1nnc(C)n12 [Example 275, [4-(7-methoxy-1-methyl-[1,2,4]triazolo[4,3-a]quinoxaline-4-ylamino)-butyl]-carbamic acid-tert-butylester] | 330 nM | – | –
– | 67 nM | COc1ccc2c(c1)nc(NCCCCNC(=O)CC(C)(C)C)c1nnc(C)n12 [Example 287, N-[4-(7-methoxy-1-methyl-[1,2,4]triazolo[4,3-a]quinoxaline-4-ylamino)-butyl]-3,3-dimethyl-butyramide] | 125 nM | ≤ 200 nM | –
– | 97 nM | CCC(C)C(=O)NCCCCNc1nc2cc(OC)ccc2n2c(C)nnc12 (stereo not shown) [Example 291, N-[4-(7-methoxy-1-methyl-[1,2,4]triazolo[4,3-a]quinoxaline-4-ylamino)-butyl]-2-methyl-butyramide] | 290 nM | – | –
≤ 50 nM | 40 nM | COc1ccc2c(c1)nc(NCCCCNC(=O)C(C)(C)C(F)(F)F)c1nnc(C)n12 [Example 293, 3,3,3-trifluoro-N-[4-(7-methoxy-1-methyl-[1,2,4]triazolo[4,3-a]quinoxaline-4-ylamino)-butyl]-2,2-dimethyl-propaneamide] | 673 nM | – | –
≤ 50 nM | 15 nM | CCC(F)(F)C(=O)NCCCCNc1nc2cc(OC)ccc2n2c(C)nnc12 [Example 294, 2,2-difluoro-N-[4-(7-methoxy-1-methyl-[1,2,4]triazolo[4,3-a]quinoxaline-4-ylamino)-butyl]-butyramide] | 203 nM | – | –

The next lines start with the compound.

Compound | IC50 [2, 4] | IC50 [2, 5] | IC50 [1, 3] | IC50 [1, 6] | IC50 ([2]; IC50, BRD4 binding inhibition, GST-BRD4 (BD1+BD2) / biotinylated acetyl-histone H4 (Lys5,8,12,16) peptide)
Cc1nnc2c(NCCCCNC(=O)CC(C)C)nc3cc(N)ccc3n12 [Example 245, N-[4-(7-amino-1-methyl-[1,2,4]triazolo[4,3-a]quinoxaline-4-ylamino)-butyl]-3-methyl-butyramide] | ≤ 50 nM | 32 nM | 361 nM | – | –
CCCNc1ccc2c(c1)nc(NCCCCNC(=O)CC(C)C)c1nnc(C)n12 [Example 253, 3-methyl-N-[4-(1-methyl-7-propylamino-[1,2,4]triazolo[4,3-a]quinoxaline-4-ylamino)-butyl]-butyramide] | ≤ 50 nM | 50 nM | 235 nM | – | –
Cc1nnc2c(NCCCCNC(=O)CC(C)C)nc3cc(NCCCC#N)ccc3n12 [Example 254, N-{4-[7-(3-cyano-propylamino)-1-methyl-[1,2,4]triazolo[4,3-a]quinoxaline-4-ylamino]-butyl}-3-methyl-butyramide] | ≤ 10 nM | 7 nM | 101 nM | ≤ 200 nM | –
Cc1nnc2c(NCCCCNC(=O)CC(C)C)nc3cc(NS(C)(=O)=O)ccc3n12 [Example 257, N-[4-(7-methanesulfonylamino-1-methyl-[1,2,4]triazolo[4,3-a]quinoxaline-4-ylamino)-butyl]-3-methyl-butyramide] | ≤ 10 nM | 8 nM | 327 nM | – | –
Cc1nnc2c(NCCCCNC(=O)CC(C)C)nc3cc(NS(=O)(=O)CC(F)(F)F)ccc3n12 [Example 258] | ≤ 50 nM | 49 nM | 345 nM | – | –
CCC(C)OC(=O)NCCCCNc1nc2cc(OC)ccc2n2c(C)nnc12 (stereo not shown) [Example 280, [4-(7-methoxy-1-methyl-[1,2,4]triazolo[4,3-a]quinoxaline-4-ylamino)-butyl]-carbamic acid-sec-butylester] | ≤ 50 nM | 14 nM | 40 nM | ≤ 200 nM | –
COc1ccc2c(c1)nc(NCCCCNC(=O)C(C)C)c1nnc(C)n12 [Example 281, N-[4-(7-methoxy-1-methyl-[1,2,4]triazolo[4,3-a]quinoxaline-4-ylamino)-butyl]-isobutyramide] | ≤ 10 nM | 0.4 nM | 158 nM | ≤ 200 nM | –
C/C=C/C(=O)NCCCCNc1nc2cc(OC)ccc2n2c(C)nnc12 [Example 283, butene-2-oic acid-[4-(7-methoxy-1-methyl-[1,2,4]triazolo[4,3-a]quinoxaline-4-ylamino)-butyl]-amide] | – | 51 nM | 176 nM | – | –
COc1ccc2c(c1)nc(NCCCCNC(=O)C=C(C)C)c1nnc(C)n12 [Example 284, 3-methyl-butene-2-oic acid-[4-(7-methoxy-1-methyl-[1,2,4]triazolo[4,3-a]quinoxaline-4-ylamino)-butyl]-amide] | ≤ 10 nM | 9 nM | 173 nM | ≤ 200 nM | –
COc1ccc2c(c1)nc(NCCCCNC(=O)[C@@H](F)C(C)C)c1nnc(C)n12 [Example 286, 2-(S)-fluoro-N-[4-(7-methoxy-1-methyl-[1,2,4]triazolo[4,3-a]quinoxaline-4-ylamino)-butyl]-3-methyl-butyramide] | ≤ 50 nM | 30 nM | 26 nM | ≤ 200 nM | –
COc1ccc2c(c1)nc(NCCCCNC(=O)CCC(C)C)c1nnc(C)n12 [Example 288, 4-methyl-pentanoic acid-[4-(7-methoxy-1-methyl-[1,2,4]triazolo[4,3-a]quinoxaline-4-ylamino)-butyl]-amide] | ≤ 50 nM | 15 nM | 34 nM | ≤ 200 nM | –
CCC(C)CC(=O)NCCCCNc1nc2cc(OC)ccc2n2c(C)nnc12 (stereo not shown) [Example 289, 3-methyl-pentanoic acid-[4-(7-methoxy-1-methyl-[1,2,4]triazolo[4,3-a]quinoxaline-4-ylamino)-butyl]-amide] | ≤ 50 nM | 12 nM | 26 nM | ≤ 200 nM | –
CCC(CC)C(=O)NCCCCNc1nc2cc(OC)ccc2n2c(C)nnc12 [Example 290, 2-ethyl-N-[4-(7-methoxy-1-methyl-[1,2,4]triazolo[4,3-a]quinoxaline-4-ylamino)-butyl]-butyramide] | ≤ 50 nM | 23 nM | 150 nM | ≤ 200 nM | –
COc1ccc2c(c1)nc(NCCCCNC(=O)C(F)(F)C(F)(F)C(F)(F)F)c1nnc(C)n12 [Example 292, 2,2,3,3,4,4,4-heptafluoro-N-[4-(7-methoxy-1-methyl-[1,2,4]triazolo[4,3-a]quinoxaline-4-ylamino)-butyl]-butyramide] | – | 24 nM | 158 nM | ≤ 200 nM | ≤ 50 nM
COc1ccc2c(c1)nc(NCCCCNC(=O)[C@H](O)C(C)C)c1nnc(C)n12 [Example 298, 2-(R)-hydroxy-N-[4-(7-methoxy-1-methyl-[1,2,4]triazolo[4,3-a]quinoxaline-4-ylamino)-butyl]-3-methyl-butyramide] | ≤ 10 nM | 4 nM | 270 nM | – | –
COc1ccc2c(c1)nc(NCCCCNC(=O)[C@@H](O)C(C)C)c1nnc(C)n12 [Example 299, 2-(S)-hydroxy-N-[4-(7-methoxy-1-methyl-[1,2,4]triazolo[4,3-a]quinoxaline-4-ylamino)-butyl]-3-methyl-butyramide] | ≤ 10 nM | 7 nM | 375 nM | – | –
COc1ccc2c(c1)nc(NCCCCNC(=O)[C@H](OC)C(C)C)c1nnc(C)n12 [Example 300, 2-(R)-methoxy-N-[4-(7-methoxy-1-methyl-[1,2,4]triazolo[4,3-a]quinoxaline-4-ylamino)-butyl]-3-methyl-butyramide] | ≤ 50 nM | 15 nM | 310 nM | – | –
